Source: patent US10793576B2, “Compound used as Bruton's tyrosine kinase inhibitor and preparation method and application thereof” (Chengdu Brilliant Pharmaceutical Co., LTD., priority 2017, dated 2020)

The molecules below were run against BTK kinase (Homo sapiens (Human), UniProt Q06187) (assay: In vitro assay for the inhibition of BTK kinase activity (Mobility-Shift Assay)).
Type: biochemical
Description: Mobility-Shift Assay, which is microfluidic chip technology, applies the basic concept of capillary electrophoresis to microfluidic environments. The substrate used for the experiment is a polypeptide with a fluorescent label. Under the action of enzyme in the reaction system, the substrate is transformed into a product, and the charge the substrate carries also changes accordingly. The use of the charge difference between the substrate and the product involved in Mobility-Shift Assay achieves the separating of the two, and they are tested respectively. The test results are expressed by conversion rates.
(3) 100% DMSO was added to the positive control well and the negative control well, respectively;

Chain of BTK kinase (Q06187 whole entry): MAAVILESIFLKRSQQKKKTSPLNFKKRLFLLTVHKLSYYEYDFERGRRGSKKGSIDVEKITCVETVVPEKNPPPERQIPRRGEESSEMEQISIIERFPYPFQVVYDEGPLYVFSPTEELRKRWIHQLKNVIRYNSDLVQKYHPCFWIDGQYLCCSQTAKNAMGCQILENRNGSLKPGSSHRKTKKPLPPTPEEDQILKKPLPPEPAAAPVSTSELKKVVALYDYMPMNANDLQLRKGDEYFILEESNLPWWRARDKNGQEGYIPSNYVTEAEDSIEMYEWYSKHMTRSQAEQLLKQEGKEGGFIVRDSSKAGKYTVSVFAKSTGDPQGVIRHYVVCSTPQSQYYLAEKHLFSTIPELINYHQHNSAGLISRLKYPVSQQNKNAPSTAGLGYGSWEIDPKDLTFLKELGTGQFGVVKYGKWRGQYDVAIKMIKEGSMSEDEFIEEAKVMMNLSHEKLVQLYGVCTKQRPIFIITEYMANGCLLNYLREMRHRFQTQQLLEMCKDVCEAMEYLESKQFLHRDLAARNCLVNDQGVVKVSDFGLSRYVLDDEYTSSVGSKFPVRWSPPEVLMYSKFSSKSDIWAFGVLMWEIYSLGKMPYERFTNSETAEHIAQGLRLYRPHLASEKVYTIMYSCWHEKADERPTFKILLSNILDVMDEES

Row | SMILES | IC50
1 | C=CC(=O)N1CC2(CC2)C[C@H]1c1nc(-c2ccc(C(=O)Nc3cc(C(F)(F)F)ccn3)cc2)c2c(N)nccn12 [Example 41, (S)-4-(3-(5-acryloyl-5-azaspiro[2.4]heptan-6-yl)-8-aminoimidazo[1,5-a]pyrazin-1-yl)-N-(4-(trifluoromethyl)pyridin-2-yl)benzamide] | 0.052 µM
2 | C=CC(=O)N1C(c2nc(-c3ccc(C(=O)Nc4cc(C(F)(F)F)ccn4)cc3)c3c(N)nccn23)CC2CC21 (stereo not shown) [Example 50] | 0.069 µM
3 | C=CC(=O)N1C2C[C@@H](C1c1nc(-c3ccc(C(C)(O)c4ccccc4)cc3)c3c(N)nccn13)N(C)C2 (stereo partly shown) [Example 88] | 0.051 µM
4 | CC(C)/C=C(/C#N)C(=O)N1CC2(CC2)C[C@H]1c1nc(-c2ccc(C(=O)Nc3ccccn3)cc2)c2c(N)nccn12 [Example 116, (S,Z)-4-(8-amino-3-(5-(2-cyano-4-methyl-2-pentenoyl)-5-azaspiro [2.4]heptan-6-yl)imidazo[1,5-a]pyrazin-1-yl)-N-(pyridin-2-yl)benzamide] | 0.276 µM
5 | CC#CC(=O)N1C[C@H]2[C@@H]([C@H]1c1nc(-c3ccc(C(C)(O)c4ccccc4)cc3)c3c(N)nccn13)C2(C)C (stereo partly shown) [Example 76] | 0.046 µM
6 | C=CC(=O)N1C(c2nc(-c3ccc(C(=O)Nc4cc(C)ccn4)cc3)c3c(N)nccn23)CC2CC21 (stereo not shown) [Example 64] | 0.087 µM
7 | CN(C/C=C/C(=O)N1CC2(CC2)C[C@H]1c1nc(-c2ccc(C(=O)Nc3ccccn3)cc2)c2c(N)nccn12)C1CC1 [Example 114, (S,E)-4-(8-amino-3-(5-(4-(cyclopropyl(methyl)amino)-2-butenoyl)-5-azaspiro[2.4]heptan-6-yl)imidazo[1,5-a]pyrazin-1-yl)-N-(pyridin-2-yl)benzamide] | 0.081 µM
8 | C=CC(=O)N1C2CN[C@@H](C2)C1c1nc(-c2ccc(C(=O)Nc3cc(Cl)ccn3)cc2)c2c(N)nccn12 (stereo partly shown) [Example 72] | 0.097 µM
9 | CC#CC(=O)N1C[C@H]2[C@@H]([C@H]1c1nc(-c3ccc(C(=O)Nc4cc(C)ccn4)cc3)c3c(N)nccn13)C2(C)C [Example 61] | 0.031 µM
10 | CC#CC(=O)N1CC2CCC1(c1nc(-c3ccc(C(=O)Nc4ccccn4)cc3)c3c(N)nccn13)CC2 [Example 121, 4-(8-amino-3-(2-(but-2-ynoyl)-2-azabicyclo[2.2.2]octan-1-yl)imidazo[1,5-a]pyrazin-1-yl)-N-(pyridin-2-yl)benzamide] | 0.043 µM
11 | C=CC(=O)N1C[C@H]2[C@@H]([C@H]1c1nc(-c3ccc(C(C)(O)c4ccccc4)cc3)c3c(N)nccn13)C2(C)C (stereo partly shown) [Example 75] | 0.057 µM
12 | C=CC(=O)N1CCC2(CC2c2nc(-c3ccc(C(=O)Nc4ccccn4)cc3)c3c(N)nccn23)C1 (stereo not shown) [Example 30] | 0.724 µM
13 | CC#CC(=O)N1CC2CCC1(c1nc(-c3ccc(C(=O)Nc4ccccn4)cc3)c3c(N)nccn13)C2 (stereo not shown) [Example 123, 4-(8-amino-3-(2-(but-2-ynoyl)-2-azabicyclo[2.2.1]heptan-1-yl)imidazo[1,5-a]pyrazin-1-yl)-N-(pyridin-2-yl)benzamide] | 0.072 µM
14 | CC#CC(=O)N1CCC2CC21c1nc(-c2ccc(C(C)(O)c3ccccc3)cc2)c2c(N)nccn12 (stereo not shown) [Example 83] | 0.046 µM
15 | CC(C)/C=C(/C#N)C(=O)N1CC2CCCC2[C@H]1c1nc(-c2ccc(C(=O)Nc3ccccn3)cc2)c2c(N)nccn12 (stereo partly drawn) [Example 117, 4-(8-amino-3-((1S)-2-((Z)-2-cyano-4-methyl-2-pentenoyl)octahydrocyclopenta [c]pyrrol-1-yl)imidazo[1,5-a]pyrazin-1-yl)-N-(pyridin-2-yl)benzamide] | 0.104 µM
16 | CC#CC(=O)N1CC2(CCNCC2)CC1c1nc(-c2ccc(C(=O)Nc3ccccn3)cc2)c2c(N)nccn12 (stereo not shown) [Example 37] | 0.046 µM
17 | C=CC(=O)N1CC2CCC1(c1nc(-c3ccc(C(=O)Nc4ccccn4)cc3)c3c(N)nccn13)C2 (stereo not shown) [Example 122, 4-(3-(2-acryloyl-2-azabicyclo[2.2.1]heptan-1-yl)-8-aminoimidazo[1,5-a]pyrazin-1-yl)-N-(pyridin-2-yl)benzamide] | 0.049 µM
18 | CC#CC(=O)N1CCC2(CC1)CC(c1nc(-c3ccc(C(=O)Nc4ccccn4)cc3)c3c(N)nccn13)CO2 (stereo not shown) [Example 27] | 0.673 µM
19 | CC#CC(=O)N1CCC2CC21c1nc(-c2ccc(C(=O)Nc3ccccn3)cc2)c2c(N)nccn12 (stereo not shown) [Example 33] | 0.094 µM
20 | C=CC(=O)N1CC2CCC2(c2nc(-c3ccc(C(=O)Nc4ccccn4)cc3)c3c(N)nccn23)C1 (stereo not shown) [Example 34] | 0.066 µM

Row | SMILES | IC50
21 | C=CC(=O)N1CC2COC[C@]2(c2nc(-c3ccc(C(=O)Nc4ccccn4)cc3)c3c(N)nccn23)C1 (stereo partly shown) [Example 38] | 0.066 µM
22 | CC#CC(=O)N1CC2CCCC2C1c1nc(-c2ccc(C(C)(O)c3ccccc3)cc2)c2c(N)nccn12 (stereo not shown) [Example 78] | 0.0184 µM
23 | CC#CC(=O)N1CC2COC[C@]2(c2nc(-c3ccc(C(=O)Nc4ccccn4)cc3)c3c(N)nccn23)C1 (stereo partly shown) [Example 39] | 0.068 µM
24 | C=CC(=O)N1CCC2(CC1)CC(c1nc(-c3ccc(C(=O)Nc4ccccn4)cc3)c3c(N)nccn13)CO2 (stereo not shown) [Example 26] | 0.477 µM
25 | CC#CC(=O)N1C(c2nc(-c3ccc(C(C)(O)c4ccccc4)cc3)c3c(N)nccn23)CC2CC21 (stereo not shown) [Example 82] | 0.382 µM
26 | C=CC(=O)N1C(c2nc(-c3ccc(Oc4ccccc4)cc3)c3c(N)nccn23)CC2CC21 (stereo not shown) [Example 100] | 0.067 µM
27 | C=CC(=O)N1C(c2nc(-c3ccc(C(=O)Nc4ccccn4)cc3)c3c(N)nccn23)CC2CC21 (stereo not shown) [Example 24] | 0.176 µM
28 | CC#CC(=O)N1C(c2nc(-c3ccc(Oc4ccccc4)cc3)c3c(N)nccn23)CC2CC21 (stereo not shown) [Example 101] | 0.077 µM
29 | C=CC(=O)N1C[C@@H]2C[C@]1(c1nc(-c3ccc(C(=O)Nc4ccccn4)cc3)c3c(N)nccn13)CCO2 [Example 7] | 0.155 µM
30 | C=CC(=O)N1CC2(CCNCC2)CC1c1nc(-c2ccc(C(=O)Nc3ccccn3)cc2)c2c(N)nccn12 (stereo not shown) [Example 36] | 0.093 µM
31 | CC#CC(=O)N1CC2CCC2(c2nc(-c3ccc(C(=O)Nc4ccccn4)cc3)c3c(N)nccn23)C1 (stereo not shown) [Example 35] | 0.067 µM
32 | CC#CC(=O)N1C[C@@H]2C[C@]1(c1nc(-c3ccc(C(=O)Nc4ccccn4)cc3)c3c(N)nccn13)CCO2 [Example 8] | 0.197 µM
33 | CC#CC(=O)N1C2C[C@@H](C1c1nc(-c3ccc(C(=O)Nc4cc(C(F)(F)F)ccn4)cc3)c3c(N)nccn13)N(C(C)C)C2 (stereo partly shown) [Example 57] | 0.059 µM
34 | C=CC(=O)NC12CC3CC(C1)CC(c1nc(-c4ccc(C(=O)Nc5ccccn5)cc4)c4c(N)nccn14)(C3)C2 [Example 28] | 0.124 µM
35 | CC#CC(=O)N1CCC2(CC2c2nc(-c3ccc(C(=O)Nc4ccccn4)cc3)c3c(N)nccn23)C1 (stereo not shown) [Example 31] | 0.736 µM
36 | C=CC(=O)N1C(c2nc(-c3ccc(C(C)(O)c4ccccc4)cc3)c3c(N)nccn23)CC2CC21 (stereo not shown) [Example 81] | 0.178 µM
37 | CC#CC(=O)N1C2CC[C@@H](C2)C1c1nc(-c2ccc(C(=O)Nc3cc(C)ccn3)cc2)c2c(N)nccn12 (stereo partly shown) [Example 63] | 0.057 µM
38 | CC#CC(=O)N1CCC2CC21c1nc(-c2ccc(C(=O)Nc3cc(C(F)(F)F)ccn3)cc2)c2c(N)nccn12 (stereo not shown) [Example 59] | 0.097 µM
39 | CC#CC(=O)NC12CC3CC(C1)CC(c1nc(-c4ccc(C(=O)Nc5ccccn5)cc4)c4c(N)nccn14)(C3)C2 [Example 29] | 0.216 µM
40 | C=CC(=O)N1CC2C[C@H]1C(c1nc(-c3ccc(C(=O)Nc4ccccn4)cc3)c3c(N)nccn13)N2C(C)=O (stereo partly shown) [Example 20] | 0.372 µM
